Laboratory results from patent US12721831B2, “Tetrahydrocurcuminoid-metal complexes, manufacturing methods thereof, and uses thereof” (Probioticsmart, LLC, priority 2020, dated 2026).

Assays:
[1] = tested on: influenza varieties; settings: laboratory cells infected with influenza varieties; cited from earlier work
[2] = cited from earlier work
[3] = DPPH radical scavenging antioxidant assay; type: biochemical; settings: 0.125-0.50 mg/mL in ethanol, 30 min at RT, 517 nm; ranking among the three
[4] = 1 gram oral, chicken serum, 280 nm and 425 nm

SMILES	reduction of viral replication [1]	water solubility [2]	antioxidant activity (DPPH radical scavenging, FIG. 16) [3]	HPLC peaks in serum at the 2-hour, 4-hour, and 24-hour timepoints [4]
COc1cc(/C=C/C(=O)CC(=O)/C=C/c2ccc(O)c(OC)c2)ccc1O [curcumin]	over 90%	–	–	–
COc1cc(CCC(=O)CC(=O)CCc2ccc(O)c(OC)c2)ccc1O [tetrahydrocurcumin]	–	not very water soluble	higher antioxidant activity than curcumin but less than the tetrahydrocurcumin-Zn-curcumin	could be seen
